This note sets out measurements from US11117904B2, “Compositions and methods for the delivery of therapeutics” (ViiV Healthcare Company, priority 2016, dated 2021).

Data set [1] has as its system human monocyte derived macrophages (MDM). The data set can be described thus: Uptake and retention of drug in human monocyte derived macrophages (HPLC). Format: cell-based. As to the method:
Human monocytes were cultured in macrophage colony stimulating factor containing cell culture medium for 7-10 days in order to differentiate into macrophages (Balkundi et al. (2011) Intl. J. Nanomed., 6:3393-3404; Nowacek et al. (2009) Nanomed., 4(8):903-917). The macrophages were incubated with a range of formulations and native drugs. At each time point, adherent MDM were washed three times with 1 mL of PBS, scraped into 1 mL of fresh PBS and pelleted by centrifugation at 950×g for 8 minutes. The cell pellet was reconstituted in 200 μl of high performance liquid chromatography (HPLC)-grade methanol and probe sonicated followed by centrifugation at 20,000×g for 20 minutes. The supernatant was analyzed for drug content using HPLC (FIG. 2A and FIG. 2B). […] Human monocytes were cultured in macrophage colony stimulating factor containing cell culture medium for 7-10 days in order to differentiate into macrophages (Balkundi et al. (2011) Intl. J. Nanomed., 6:3393-3404; Nowacek et al. (2009) Nanomed., 4(8):903-917). The macrophages were incubated with a range of formulations and native drugs. At each time point, adherent monocyte-derived macrophage (MDM) were washed three times with 1 mL of PBS, scraped into 1 mL of fresh PBS and pelleted by centrifugation at 950×g for 8 minutes. […] The supernatant was analyzed for drug content using HPLC (FIGS. 4A and 4B). […]

Data set [2] can be described thus: Nanoparticle characterization by dynamic light scattering. In kind it is physicochemical. Conditions: upon derivatization of native drug into prodrug. As to the method:
Nanoformulations were characterized for particle size, polydispersity index (PDI) and zeta potential by dynamic light scattering (FIG. 1). This was done using a Malvern Zetasizer, Nano Series Nano-ZS (Malvern Instruments Inc., Westborough, Mass.). Nanoparticle morphology was determined by scanning electron microscopy (SEM). Ultra performance liquid chromatography tandem mass-spectrometry (UPLC MS/MS) was used for drug quantitation. […] Further, the improved hydrophobicity of MDTG facilitated production of stable formulations with high drug loading capacity. Nanoformulations were characterized for particle size, polydispersity index (PDI) and zeta potential by dynamic light scattering (DLS) (Table 1). This was done using a Malvern Zetasizer, Nano Series Nano-ZS (Malvern Instruments Inc, Westborough, Mass.). Nanoparticle morphology was determined by scanning electron microscopy (SEM). UPLC MS/MS was used for drug quantitation. […] The improved hydrophobicity of MCAB facilitated production of stable formulations with high drug loading capacity.

The test system of a further data set is HIV-1ADA. As to the kind of experiment: Antiretroviral activity in MDM challenged with HIV-1ADA (RT activity, HIV-1 p24 staining). In kind it is cell-based. Conditions: MDM treated with 100 μM for 8 hours, challenged with HIV-1ADA at MOI 0.01; RT activity and p24. As to the method: MDM were treated with either 100 μM DTG, MDTG, P407-MDTG or FA-P407-MDTG for 8 hours. The cells were washed with PBS to remove excess of free drug and nanoparticles. The MDM were challenged with HIV-1ADA at a MOI of 0.01 infectious viral particles/cell for 18 hours on day 1, 5, 10 and 15. Progeny virion production was measured by reverse transcriptase (RT) activity in culture medium (Kalter et al. (1992) J. Clin. Microbiol., 30(4):993-995) (FIG. 2C). HIV-1 p24 protein antigen expression was assessed (Guo et al. (2014) J. Virol., 88(17):9504-9513). The MDM were washed with PBS and fixed with 4% paraformaldehyde for 15 minutes at room temperature. The cells were blocked using 10% BSA containing 1% Triton X-100 in PBS for 30 minutes at room temperature. Following blocking, cells were incubated with HIV-1 p24 mouse monoclonal antibodies (1:50; Dako, Carpinteria, Calif., USA) for overnight at 4° C., followed by 1 hour incubation at room temperature. […]
MDM were treated with either 100 μM CAB long acting parenteral (CAB-LAP), P407-CAB, P407-MCAB or FA-P407-MCAB for 8 hours. […] Progeny virion production was measured by reverse transcription (RT) activity in culture medium (Kalter et al. (1992) J. Clin. Microbiol., 30(4):993-995). HIV-1 p24 protein antigen expression was assessed (Guo et al. (2014) J. Virol., 88(17):9504-9513) (FIG. 4C). […]

Take `CCCCCCCCCCCCCC(=O)Oc1c2n(cc(C(=O)NCc3ccc(F)cc3F)c1=O)CC1OCC(C)N1C2=O` (centres unmarked) [MCAB]: the “intracellular accumulation of the drug” value in data set [1] (MDM, compared to CAB-LAP) was “significantly improved”. In data set [2], the hydrophobicity entry is listed as “greatly improved”.

Regarding `CCCCCCCCCCCCCC(=O)Oc1c2n(cc(C(=O)NCc3ccc(F)cc3F)c1=O)C[C@@H]1OCC[C@@H](C)N1C2=O` [MDTG], the MDM retention result in data set [1] (cellular retention in MDM) is “significant enhancements”. In addition, the hydrophobicity entry in data set [2] is “greatly improved”. The antiretroviral efficacy entry in the data set on HIV-1ADA was “significant enhancements”.
